Reference: publication PMC9663589, “Anti-tumor effects of P-LPK-CPT, a peptide-camptothecin conjugate, in colorectal cancer” (Communications Biology, 2022)
“Also recorded” adds a separate entry of the source. No end group written: not given here.

Tests used:
[1] = tested on: HCT116 cells; assay: Glutamine competition experiment (FITC-P-LPK uptake); assay type: cell-based, human; details: 0–32 mM glutamine, 37 °C, 2 h
Method: Then these cells were washed with ice-cold PBS three times gently, suspended in PBS and transferred to a 96-well costar plate. The fluorescence intensity was measured in a multi-well plate reader (BioTek synergy4).

[2] = in vivo; parameters: species or system human xenograft in BALB/c nude mice; details: female, BALB/c nude, mouse, iv, 3.7 MBq, total radioactivity, T/NT ratio
Method: (§1) To obtain ^68Ga, 0.1 M HCl was used to elute a ^68Ge-^68Ga generator. The radioactivity of eluate was monitored. The radioactive elution peak was collected for ^68Ga radiolabeling experiment. An aliquot of 150 μg of compound P-LPK or P-CON was put in a glass vial and dissolved with 0.2 M sodium acetate/acetic acid buffer, pH 3.8. Then ^68GaCl3 tracer was added, and the pH was adjusted to fall in a range of 3.5~4 with 0.1 M NaOH. The solution was stored at room temperature for 0.5 h. The radiochemical purities of ^68Ga-P-LPK and ^68Ga-P-CON were measured with thin-layer chromatography (TLC), using silica gel-impregnated glass fiber stripe (iTLC SG) and 0.25 M sodium citrate/citric acid buffer as mobile phase. ^68GaCl3 was used as a control.
(§2) Each U87 and HCT116 tumor-bearing mouse was injected in a tail vein with 3.7 MBq (100 μCi, 0.1 nmol in 100 μl) of ^68Ga-P-LPK or ^68Ga-P-CON under isoflurane anesthesia (n = 4 per group). For static PET, 5-min scans were acquired at 30 min, 60 min, and 120 min after injection. The maximum radioactivity concentrations within a tumor or an organ were obtained from mean pixel values within the multiple regions of interest (ROI) volume.
For the blocking experiment, unlabeled P-LPK was first injected into mice (n = 3 per group), and 3.7 MBq ^68Ga-P-LPK was then injected. Static PET images were acquired at 30 min, 60 min and 120 min post-injection.

[3] = tested on: U87 tumors; assay: in vivo; parameters: species or system human xenograft in BALB/c nude mice; details: female, BALB/c nude, mouse, iv, 3.7 MBq, 2 h
Method: as §1, §2

[4] = in vivo; parameters: species or system human xenograft in BALB/c nude mice; details: female, BALB/c nude, mouse, iv, 3.7 MBq, total radioactivity, T/NT ratio; remark: listed apart in the source
Method: as §1, §2

[5] = tested on: Plasminogen activator inhibitor 1 precursor (PAI1); details: MDA-MB-231, bioinformatics analysis; cited from earlier work
Source text: (§3) The specific binding mechanisms of a peptide to a cell is presumably by its binding to a given receptor expressed at the cell membrane.

[6] = tested on: CRC cells; details: conjugated to CPT
[7] = tested on: human CRC cell lines; details: earlier phage display study; cited from earlier work
Source text: The phage display technique is a powerful tool to identify novel targeting peptides in researches and clinics[10]–[12]. By screening whole cells, it is able to identify short peptides that interact with cell surface molecules.

[8] = tested on: human CRC cell lines; assay: Peptide binding to a panel of human CRC cell lines; assay type: cell-based; details: confocal imaging, in contrast to NCM460; FITC-labeled
Method: NCM460, Colo320HSR, HCT116, LoVo, HT29 and SW480 cells were respectively incubated with FITC-labeled P-LPK (Random peptide P-CON) peptides for 2 h at 37 °C and washed with PBS for three times. The cells were fixed with 4% paraformaldehyde for 30 min at room temperature, and then 4,6-diamidino-2-phenylindole (DAPI) was used for nucleic acid stain. A laser scanning confocal microscope was used to visualize the cells. The fluorescence intensity was analyzed using the Image-Pro Plus 6.0 software. For cell localization experiment, 20 μg/ml rhodamine-labeled peptides were incubated with NCM460 and HCT116 for 2 h, and then washed with PBS for three times. After that, the cell membrane was stained with a blue cell membrane probe (Thermo Fisher Scientific, Cat. No. W11263). The binding of Rhodamine-P-LPK to cells and their localization in cells was observed under a confocal microscope.

[9] = tested on: SLC1A5 in HT29 cells; assay: FITC-P-LPK binding after SLC1A5 knockdown; assay type: cell-based, human; details: si-SLC1A5, 48 h
Method: (§4) Fig. 6 P-LPK bound to SLC1A5 and entered CRC cells through endocytosis. a, b Western blotting analysis of SLC1A5 in NCM460, HCT116, LoVo, SW480, HT29 and Colo320HSR cells. After knocking down SLC1A5 in HCT116 and HT29, the binding intensity of FITC-P-LPK to cells was observed by confocal microscopy. Bar, 10 μm. c, d Effects of different endocytosis inhibitors on the internalization of FITC-P-LPK. HCT116 cells were pre-treated with 10 µM chlorpromazine, 50 μM methyl-β-cyclodextrin, 20 µM Amiloride hydrochloride for 30 min at 37 °C. Subsequently, the cells were incubated with FITC-P-LPK for 2 h. Then the fluorescence intensity was observed by confocal microscopy and detected using a multi-well plate reader (n = 5, means ± SD, NC vs CPZ, p = 0.0001; NC vs MβCD, p = 0.9069; NC vs EIPA, p = 0.9812) (****p < 0.0001). Bar, 10 μm. e The competition experiment with SLC1A5 substrates glutamine. FITC-P-LPK was incubated with increasing concentrations (0–32 mM) of glutamine in HCT116 cells at 37 °C for 2 h. The fluorescence intensity was measured in a multi-well plate reader (n = 5, means ± SD). […]
(§5) Primary antibodies against SLC1A5 (Abcam,  Cat No. ab237704,1:1000) and secondary antibodies labeled with HRP (YEASEN, 33701ES60, China,1:5000) was applied. Signals were detected using ECL Kit (Pierce Biotech, Rockford, IL). β-Actin (Sigma,USA, A5441) was performed as an internal control.

[10] = tested on: SLC1A5 in HCT116 cells; assay: FITC-P-LPK binding after SLC1A5 knockdown; assay type: cell-based, human; details: si-SLC1A5, 48 h
Method: as §4, §5

[11] = tested on: α-2-macroglobulin; details: androgen-independent prostate cancer cells; cited from earlier work
Source text: as §3

[12] = tested on: Metalloproteinase Inhibitor 1 (TIMP-1); details: MDA-MB-231, bioinformatics analysis; cited from earlier work
Source text: as §3

[13] = tested on: 78 kDa glucose-regulated protein; details: androgen-independent prostate cancer cells; cited from earlier work
Source text: as §3

Compound: NC(=O)CC[C@H](N)C(=O)O [glutamine]
- Effect on uptake of FITC-P-LPK [1]: does not affect the uptake of P-LPK

Compound: DLPSRTSALASG [68Ga-P-CON, metal not drawn]
- tissue to tissue ratio at 0.5 h [2]: 1.58
- tissue to tissue ratio at 1 h [2]: 1.49
- tissue to tissue ratio at 2 h [2]: 1.37
- T/NT ratio [3]: 1.28
- tissue to tissue ratio at 0.5 h [4]: 1.75
- tissue to tissue ratio at 1 h [4]: 1.56
- tissue to tissue ratio at 2 h [4]: 1.33

Compound: DTFNSFGRVRIE [peptide targeting MDA-MB-231]
- Targeting [5]: specifically targeted

Compound: DWSSWVYRDPQT [CBP-DWS]
- Improvement of CPT killing when used as targeting vector [6]: did not improve the targeted killing ability
- Binding to CRC cells [7]: selectively bound to CRC cells

Compound: FITC-P-LPK (LPKTVSSDMSLN; also: FITC label, position not given here)
- FITC-peptide binding to CRC cells [8]: stronger green fluorescence in CRC cells than normal NCM460 cells; also recorded: abundant binding capacity to human CRC cell lines
- Fluorescence after SLC1A5 knockdown [9]: reduction of the fluorescence
- Fluorescence after SLC1A5 knockdown [10]: reduction of the fluorescence

Compound: PKRGFQD [peptide targeting androgen-independent prostate cancer cells]
- Binding [11]: bind specifically to α-2-macroglobulin

Compound: PRWAVSP [peptide targeting MDA-MB-231]
- Targeting [12]: specifically targeted Metalloproteinase Inhibitor 1 (TIMP-1)

Compound: SNTRVAP [peptide targeting androgen-independent prostate cancer cells]
- Binding [13]: bind specifically
